Here are results for 17 molecules from PubChem BioAssay AID292 (DTP/NCI, 2004).

Values joined by “and” are separate entries in the source; they are usually repeats but may differ in a detail not shown here. Identical values can stand only once. Toxic doses and inconclusive results are not listed.

This assay relates to B6C3F1 mice, ip Sarcoma M5076, median survival T/C. As to the kind of experiment: NCI In Vivo Anticancer Drug Screen. Data for tumor model Sarcoma M5076 (intraperitoneal) in B6C3F1 mice. To be noted: endpoint: median survival time, higher = longer survival. The protocol: The antitumor activity of compounds was measured in mice bearing transplantable tumors. Survival or tumor size were measured and the results are expressed as the measurement made in the treated group (T) divided by the measurement made in the vehicle treated control group (C). The tumor model used in this assay is Sarcoma M5076 (intraperitoneal) in B6C3F1 mice

[1] abbreviates: dose: 50.0 mg/kg/injection, schedule: Q04DX004 (ip), vehicle: saline with Tween-80.
The mark [2] stands for this setting: dose: 100.0 mg/kg/injection, schedule: Q04DX004 (ip), vehicle: saline with Tween-80.
Setting [3] is: dose: 200.0 mg/kg/injection, schedule: Q04DX004 (ip), vehicle: saline with Tween-80.
Where [4] appears, read: dose: 25.0 mg/kg/injection, schedule: Q04DX004 (ip), vehicle: saline.
The mark [5] stands for this setting: dose: 25.0 mg/kg/injection, schedule: Q04DX004 (ip), vehicle: Klucel (hydroxypropylcellulose) (HPC).
[6] abbreviates: dose: 50.0 mg/kg/injection, schedule: Q04DX004 (ip), vehicle: Klucel (hydroxypropylcellulose) (HPC).

Consider `NC(C(=O)O)C1=CCCCCC1` (configuration not stated), for which the T/C was 100 % of control (dose: 16.25 mg/kg/injection, schedule: Q04DX004 (ip), vehicle: Klucel (hydroxypropylcellulose) (HPC)); 111 % of control (dose: 32.5 mg/kg/injection, schedule: Q04DX004 (ip), vehicle: Klucel (hydroxypropylcellulose) (HPC)); 104 % of control (dose: 65.0 mg/kg/injection, schedule: Q04DX004 (ip), vehicle: Klucel (hydroxypropylcellulose) (HPC)); 95 % of control (dose: 130.0 mg/kg/injection, schedule: Q04DX004 (ip), vehicle: Klucel (hydroxypropylcellulose) (HPC)); 100 % of control (dose: 260.0 mg/kg/injection, schedule: Q04DX004 (ip), vehicle: Klucel (hydroxypropylcellulose) (HPC)).

Take `COc1cc2c(c3c1c(=O)c1ccccc1n3C)C=C([N+](=O)[O-])C(C)(C)O2`: the T/C (dose: 25.0 mg/kg/injection, schedule: Q04DX004 (ip), vehicle: saline + Tween-80 + alcohol) was 104 % of control and the T/C (dose: 50.0 mg/kg/injection, schedule: Q04DX004 (ip), vehicle: saline + Tween-80 + alcohol) is 90 % of control.

For `NC(=O)C1C=CN(Cc2ccccc2)C=C1`, the T/C reads like this: under setting [1], 111 % of control; under setting [2], 116 % of control; under setting [3], 106 % of control.

For `O=c1[nH]cc(F)c(=O)[nH]1`, the T/C was 104 % of control and 122 % of control (dose: 12.5 mg/kg/injection, schedule: Q04DX004 (ip), vehicle: saline); 111 % of control and 120 % of control under setting [4].

Consider `BrC[P+](CBr)(CBr)CBr`, for which the T/C (dose: 15.63 mg/kg/injection, schedule: Q04DX004 (ip), vehicle: saline with Tween-80) was 107 % of control and 115 % of control; the T/C (dose: 125.0 mg/kg/injection, schedule: Q04DX004 (ip), vehicle: saline with Tween-80) was 186 % of control.

In the case of `C[C@@]1(CO)[C@H](O)CC[C@@]2(C)[C@H]1CC[C@H]1C[C@@H]3C[C@@]12CC[C@@]3(O)COC(=O)CN`, the T/C runs as follows: (dose: 7.2 mg/kg/injection, schedule: Q03HX027 (ip), vehicle: saline + alcohol) 116 % of control; (dose: 10.0 mg/kg/injection, schedule: Q03HX027 (ip), vehicle: saline + alcohol) 121 % of control; (dose: 12.0 mg/kg/injection, schedule: Q03HX027 (ip), vehicle: saline + alcohol) 116 % of control; (dose: 18.8 mg/kg/injection, schedule: Q04DX004 (ip), vehicle: saline + alcohol) 109 % of control; (dose: 20.0 mg/kg/injection, schedule: Q03HX027 (ip), vehicle: saline + alcohol) 157 % of control; (dose: 37.5 mg/kg/injection, schedule: Q04DX004 (ip), vehicle: saline + alcohol) 104 % of control. Also, the T/C by setting is: (dose: 55.6 mg/kg/injection, schedule: Q03HX027 (ip), vehicle: saline + alcohol) 156 % of control; (dose: 75.0 mg/kg/injection, schedule: Q04DX004 (ip), vehicle: saline + alcohol) 102 % of control; (dose: 120.0 mg/kg/injection, schedule: Q01DX009 (ip), vehicle: saline + alcohol) 110 % of control.

As to `CCOC(=O)C(C(=O)OCC)=C(N)C(Cl)(Cl)Cl`, the T/C runs as follows: under setting [5], 107 % of control; under setting [6], 103 % of control; (dose: 100.0 mg/kg/injection, schedule: Q04DX004 (ip), vehicle: Klucel (hydroxypropylcellulose) (HPC)) 101 % of control; (dose: 200.0 mg/kg/injection, schedule: Q04DX004 (ip), vehicle: Klucel (hydroxypropylcellulose) (HPC)) 103 % of control; (dose: 400.0 mg/kg/injection, schedule: Q04DX004 (ip), vehicle: Klucel (hydroxypropylcellulose) (HPC)) 96 % of control.

In the case of `CC/C(=C(\c1ccccc1)c1ccc(OCCN(C)C)cc1)c1ccccc1`, the T/C was 101 % of control (dose: 12.5 mg/kg/injection, schedule: Q04DX004 (ip), vehicle: Klucel (hydroxypropylcellulose) (HPC)); 107 % of control under setting [5]; 89 % of control and 103 % of control under setting [6].

As for `CC(=O)N1CCCN(C)/C1=N/[N+](=O)[O-]`, the T/C was 100 % of control (dose: 37.5 mg/kg/injection, schedule: Q04DX004 (ip), vehicle: saline); 104 % of control (dose: 75.0 mg/kg/injection, schedule: Q04DX004 (ip), vehicle: saline); 104 % of control (dose: 150.0 mg/kg/injection, schedule: Q04DX004 (ip), vehicle: saline); 100 % of control (dose: 300.0 mg/kg/injection, schedule: Q04DX004 (ip), vehicle: saline).

As to `CN1CCC2CC1c1ccn(C)c1C2=O` (configuration not stated), the T/C (dose: 3.75 mg/kg/injection, schedule: Q04DX004 (ip), vehicle: saline) was 106 % of control; the T/C (dose: 7.5 mg/kg/injection, schedule: Q04DX004 (ip), vehicle: saline) is 102 % of control; the T/C (dose: 15.0 mg/kg/injection, schedule: Q04DX004 (ip), vehicle: saline) was 107 % of control.

For the molecule `CN(C)N=Nc1ccc(C(=O)O)cc1`, the T/C by setting is: under setting [4], 122 % of control; (dose: 50.0 mg/kg/injection, schedule: Q04DX004 (ip), vehicle: saline) 153 % of control and 159 % of control and 169 % of control; (dose: 100.0 mg/kg/injection, schedule: Q04DX004 (ip), vehicle: saline) 168 % of control and 178 % of control and 181 % of control.

In the case of `CCN(CC)CCn1[nH]c2c3ccc(=O)cc3sc3c(NCCN)ccc1c32`, the T/C was 194 % of control (dose: 3.12 mg/kg/injection, schedule: Q04DX004 (ip), vehicle: water); 155 % of control and 163 % of control and 200 % of control (dose: 6.25 mg/kg/injection, schedule: Q04DX004 (ip), vehicle: water); 178 % of control and 201 % of control and 239 % of control (dose: 12.5 mg/kg/injection, schedule: Q04DX004 (ip), vehicle: water).

`Nc1nc(=O)nc2[nH]c3c4cccc5cccc(c3nc12)c54`: the T/C is 101 % of control (dose: 37.5 mg/kg/injection, schedule: Q04DX004 (ip), vehicle: saline with Tween-80); 95 % of control (dose: 75.0 mg/kg/injection, schedule: Q04DX004 (ip), vehicle: saline with Tween-80); 98 % of control (dose: 150.0 mg/kg/injection, schedule: Q04DX004 (ip), vehicle: saline with Tween-80); 90 % of control (dose: 300.0 mg/kg/injection, schedule: Q04DX004 (ip), vehicle: saline with Tween-80); 94 % of control (dose: 600.0 mg/kg/injection, schedule: Q04DX004 (ip), vehicle: saline with Tween-80).

For `COc1ccc(CCN2C(=O)C(=O)N(c3cccc(Cl)c3)C2=O)cc1OC`, the T/C (dose: 43.75 mg/kg/injection, schedule: Q04DX004 (ip), vehicle: Klucel (hydroxypropylcellulose) (HPC)) is 88 % of control; the T/C (dose: 87.5 mg/kg/injection, schedule: Q04DX004 (ip), vehicle: Klucel (hydroxypropylcellulose) (HPC)) was 91 % of control; the T/C (dose: 175.0 mg/kg/injection, schedule: Q04DX004 (ip), vehicle: Klucel (hydroxypropylcellulose) (HPC)) was 88 % of control; the T/C (dose: 350.0 mg/kg/injection, schedule: Q04DX004 (ip), vehicle: Klucel (hydroxypropylcellulose) (HPC)) was 98 % of control; the T/C (dose: 700.0 mg/kg/injection, schedule: Q04DX004 (ip), vehicle: Klucel (hydroxypropylcellulose) (HPC)) was 92 % of control.

`Nc1ccc2ccc(N)cc2c1`: the T/C runs as follows: (dose: 25.0 mg/kg/injection, schedule: Q04DX004 (ip), vehicle: saline with Tween-80) 93 % of control; under setting [1], 96 % of control; under setting [2], 89 % of control; under setting [3], 93 % of control.

As for `COc1cccc2c1[C@H]1CO[C@H]3C4C[C@H](C(=O)O)C([C@@H](C2)N13)N4C` (some centres not stated), the T/C was 98 % of control (dose: 0.62 mg/kg/injection, schedule: Q04DX004 (ip), vehicle: water); 100 % of control (dose: 1.25 mg/kg/injection, schedule: Q04DX004 (ip), vehicle: water); 102 % of control (dose: 2.5 mg/kg/injection, schedule: Q04DX004 (ip), vehicle: water); 109 % of control (dose: 5.0 mg/kg/injection, schedule: Q04DX004 (ip), vehicle: water); 118 % of control (dose: 10.0 mg/kg/injection, schedule: Q04DX004 (ip), vehicle: water).

With `C=C(C)/C([O-])=N/[N+](C)(C)CC(O)CCCCCCCCCCCC` (configuration not stated), the T/C (dose: 12.5 mg/kg/injection, schedule: Q04DX004 (ip), vehicle: suspension in saline) is 97 % of control; the T/C (dose: 25.0 mg/kg/injection, schedule: Q04DX004 (ip), vehicle: suspension in saline) was 95 % of control; the T/C (dose: 50.0 mg/kg/injection, schedule: Q04DX004 (ip), vehicle: suspension in saline) is 100 % of control; the T/C (dose: 100.0 mg/kg/injection, schedule: Q04DX004 (ip), vehicle: suspension in saline) was 92 % of control.
